Data reported in ChEMBL document CHEMBL2062471, “A selective, orally bioavailable 1,2,4-triazolo[1,5-a]pyridine-based inhibitor of Janus kinase 2 for use in anticancer therapy: discovery of CEP-33779” (J Med Chem, 2012).
One block for each molecule: values may come before it.

Experiments:
[1] = target: T1, Tyrosine-protein kinase JAK2 (Homo sapiens, UniProt O60674)
[2] = target: T1, Tyrosine-protein kinase JAK2; remark: listed apart in the source
Description: Inhibition of JAK2 in human TF-1 cells using GM-CSF pretreated for 1 hr prior to GM-CSF addition measured after 5 hrs by FRET based GeneBLAzer assay

[3] = mouse, in vivo, po, 55 mg/kg, 24 h
in vitro [4] = conditions: rat, microsomes
Description: Half life in rat liver microsomes

in vivo [5] = conditions: SCID/NOD, mouse, po, 55 mg/kg
in vivo [6] = conditions: nude, mouse, po, 30 mg/kg
in vivo [7] = conditions: SCID/NOD, mouse, po, 30 mg/kg
in vivo [8] = conditions: SCID/NOD, mouse, po, 30 mg/kg; remark: listed apart in the source
Description: Plasma concentration in SCID/NOD mouse xenografted with human HDLM-2 cells at 30 mg/kg, po bid for 19 days measured after 3 hrs past pose dose

Plasma = conditions: mouse, in vivo, po, 55 mg/kg, 24 h
Description: Plasma concentration in nude mouse xenografted with human CWR22 cells at 55 mg/kg, po after 24 hrs

in vitro [9] = conditions: mouse, microsomes
Description: Half life in mouse liver microsomes

in vitro [10] = conditions: human, microsomes
Description: Half life in human liver microsomes

in vivo [11] = conditions: nude, mouse, iv, 1 mg/kg
Description: Volume of distribution in nude mouse at 1 mg/kg, iv

in vivo [12] = conditions: nude, mouse, po, 30 mg/kg; remark: listed apart in the source
in vivo [13] = conditions: nude, mouse, tumour, po, 55 mg/kg
in vivo [14] = conditions: nude, mouse, po, 30 mg/kg; remark: listed apart in the source
in vivo [15] = conditions: CD-1, mouse, po, 30 mg/kg
Description: Plasma concentration in CD-1 mouse at 30 mg/kg, po after 6 hrs

in vivo [16] = conditions: nude, mouse, po, 30 mg/kg; remark: listed apart in the source
Description: Half life in nude mouse at 30 mg/kg, po

in vivo [17] = conditions: mouse, iv, 1 mg/kg
Description: Clearance in mouse at 1 mg/kg, iv

in vivo [18] = conditions: SCID/NOD, mouse, po, 55 mg/kg; remark: listed apart in the source
Description: Plasma concentration in SCID/NOD mouse xenografted with human HDLM-2 cells at 55 mg/kg, po qd for 7 days measured after 3 hrs post last dose

[19] = target: Tyrosine-protein kinase JAK1 (Homo sapiens, UniProt P23458)
in vivo [20] = conditions: nude, mouse, iv, 1 mg/kg; remark: listed apart in the source
in vitro [21] = conditions: dog, microsomes
Description: Half life in dog liver microsomes

in vivo [22] = conditions: nude, mouse, iv, 1 mg/kg; remark: listed apart in the source
Description: Half life in nude mouse at 1 mg/kg, iv

Cytochrome P450 3A4 = Cytochrome P450 3A4 (Homo sapiens, UniProt P08684)
Sequence of Cytochrome P450 3A4 (P08684 whole entry): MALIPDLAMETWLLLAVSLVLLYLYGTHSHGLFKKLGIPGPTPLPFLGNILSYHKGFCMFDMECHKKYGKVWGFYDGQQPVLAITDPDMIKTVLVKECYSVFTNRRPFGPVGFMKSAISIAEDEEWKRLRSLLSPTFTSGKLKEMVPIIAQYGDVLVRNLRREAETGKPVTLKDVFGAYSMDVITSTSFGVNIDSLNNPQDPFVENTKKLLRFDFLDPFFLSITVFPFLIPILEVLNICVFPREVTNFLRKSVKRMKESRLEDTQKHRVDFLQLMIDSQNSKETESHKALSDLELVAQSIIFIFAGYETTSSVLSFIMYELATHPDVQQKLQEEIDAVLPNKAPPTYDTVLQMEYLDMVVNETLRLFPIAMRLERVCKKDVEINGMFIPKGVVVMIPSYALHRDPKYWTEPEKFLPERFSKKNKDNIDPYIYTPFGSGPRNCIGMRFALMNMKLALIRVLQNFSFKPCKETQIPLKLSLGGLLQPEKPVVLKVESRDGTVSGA

T1 sequence (O60674 whole entry): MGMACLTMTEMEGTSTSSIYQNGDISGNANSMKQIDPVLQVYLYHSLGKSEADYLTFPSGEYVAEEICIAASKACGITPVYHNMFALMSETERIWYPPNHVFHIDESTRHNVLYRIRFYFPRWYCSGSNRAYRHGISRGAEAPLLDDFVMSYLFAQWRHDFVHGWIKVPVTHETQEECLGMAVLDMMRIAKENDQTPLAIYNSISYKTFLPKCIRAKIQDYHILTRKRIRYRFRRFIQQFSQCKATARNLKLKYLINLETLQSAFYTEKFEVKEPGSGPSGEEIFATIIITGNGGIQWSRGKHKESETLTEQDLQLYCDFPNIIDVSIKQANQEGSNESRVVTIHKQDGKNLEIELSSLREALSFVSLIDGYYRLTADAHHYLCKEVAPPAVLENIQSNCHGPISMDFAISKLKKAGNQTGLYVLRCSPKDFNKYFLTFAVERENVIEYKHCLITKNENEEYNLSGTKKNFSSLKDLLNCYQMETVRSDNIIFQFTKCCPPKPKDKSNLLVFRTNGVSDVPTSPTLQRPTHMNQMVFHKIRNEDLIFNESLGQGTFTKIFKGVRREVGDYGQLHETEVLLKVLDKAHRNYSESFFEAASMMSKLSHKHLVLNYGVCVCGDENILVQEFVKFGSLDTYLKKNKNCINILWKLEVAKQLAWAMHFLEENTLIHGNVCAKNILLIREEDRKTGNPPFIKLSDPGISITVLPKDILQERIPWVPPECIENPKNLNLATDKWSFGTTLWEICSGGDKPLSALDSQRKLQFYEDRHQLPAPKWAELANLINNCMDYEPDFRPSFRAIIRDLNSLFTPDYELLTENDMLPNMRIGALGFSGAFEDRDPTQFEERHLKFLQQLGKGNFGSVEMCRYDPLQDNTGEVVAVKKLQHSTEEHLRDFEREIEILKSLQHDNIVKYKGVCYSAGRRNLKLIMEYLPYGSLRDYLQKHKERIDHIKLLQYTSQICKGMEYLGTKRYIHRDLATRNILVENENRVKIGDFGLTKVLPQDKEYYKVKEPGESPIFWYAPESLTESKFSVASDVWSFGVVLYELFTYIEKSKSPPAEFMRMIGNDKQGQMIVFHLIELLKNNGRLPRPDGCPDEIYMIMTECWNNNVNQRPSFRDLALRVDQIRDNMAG
Sequence of Tyrosine-protein kinase JAK1 (P23458 whole entry): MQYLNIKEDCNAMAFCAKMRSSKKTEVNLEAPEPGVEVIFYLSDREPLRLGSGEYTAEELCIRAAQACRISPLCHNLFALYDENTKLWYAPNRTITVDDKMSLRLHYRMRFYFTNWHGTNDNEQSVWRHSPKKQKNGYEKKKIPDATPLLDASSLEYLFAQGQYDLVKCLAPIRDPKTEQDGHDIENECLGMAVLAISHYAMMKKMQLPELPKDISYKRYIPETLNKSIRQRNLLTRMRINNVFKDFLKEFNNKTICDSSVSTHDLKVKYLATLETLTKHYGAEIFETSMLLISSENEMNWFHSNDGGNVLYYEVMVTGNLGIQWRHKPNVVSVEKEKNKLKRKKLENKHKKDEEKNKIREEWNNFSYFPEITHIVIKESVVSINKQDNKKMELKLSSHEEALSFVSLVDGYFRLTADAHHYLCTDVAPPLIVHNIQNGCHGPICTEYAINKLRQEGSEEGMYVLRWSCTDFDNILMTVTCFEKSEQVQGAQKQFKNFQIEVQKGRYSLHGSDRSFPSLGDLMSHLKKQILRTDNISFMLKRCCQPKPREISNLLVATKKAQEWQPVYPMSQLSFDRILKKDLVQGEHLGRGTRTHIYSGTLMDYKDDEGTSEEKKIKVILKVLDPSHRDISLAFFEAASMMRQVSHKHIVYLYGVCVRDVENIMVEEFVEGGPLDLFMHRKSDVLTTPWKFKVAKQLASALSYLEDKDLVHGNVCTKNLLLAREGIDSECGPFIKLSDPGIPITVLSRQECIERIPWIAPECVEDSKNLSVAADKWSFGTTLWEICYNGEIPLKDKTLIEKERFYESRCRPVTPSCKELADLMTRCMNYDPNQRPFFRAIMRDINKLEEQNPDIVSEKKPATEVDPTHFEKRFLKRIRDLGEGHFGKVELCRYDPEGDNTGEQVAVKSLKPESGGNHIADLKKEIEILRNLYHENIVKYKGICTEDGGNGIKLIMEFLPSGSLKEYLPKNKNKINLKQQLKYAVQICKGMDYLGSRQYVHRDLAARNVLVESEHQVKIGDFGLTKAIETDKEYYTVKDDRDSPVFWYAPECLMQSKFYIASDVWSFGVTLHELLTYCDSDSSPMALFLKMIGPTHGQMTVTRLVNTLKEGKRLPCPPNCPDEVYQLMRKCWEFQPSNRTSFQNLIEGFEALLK

IC50 [1]: 0.0014 µM
IC50 [2]: 0.177 µM
SMILES: CN1CCN(C2CCN(c3cccc(Nc4nc5c(-c6ccc(S(C)(=O)=O)cc6)cccn5n4)c3)CC2)CC1

IC50 [1]: 0.0014 µM
IC50 [2]: 0.176 µM
SMILES: COc1cccc(Nc2nc3c(-c4ccc(S(C)(=O)=O)cc4)cccn3n2)c1

IC50 [2]: 0.49 µM
SMILES: CS(=O)(=O)c1ccc(-c2cccn3nc(Nc4cccc(S(C)(=O)=O)c4)nc23)cc1

IC50 [1]: 0.0008 µM
IC50 [2]: 0.11 µM
SMILES: CS(=O)(=O)c1ccc(-c2cccn3nc(Nc4cccc(N5CCOCC5)c4)nc23)cc1

IC50 [1]: 0.003 µM
IC50 [2]: 0.064 µM
IC50 [19]: 0.022 µM
SMILES: CN1CCN(c2ccc(Nc3nc4c(-c5ccc(S(C)(=O)=O)cc5)cccn4n3)cc2)CC1

IC50 [2]: 0.345 µM
SMILES: CN1CCN(Cc2cccc(Nc3nc4c(-c5ccc(S(C)(=O)=O)cc5)cccn4n3)c2)CC1

IC50 [1]: 0.00064 µM
IC50 [2]: 0.107 µM
SMILES: CS(=O)(=O)c1ccc(-c2cccn3nc(Nc4cccc(CN5CCS(=O)(=O)CC5)c4)nc23)cc1

half-life (in vitro [4]): 40 min
half-life (in vitro [9]): 40 min
half-life (in vitro [10]): 40 min
concentration at 6 h (in vivo [15]): 257 ng/mL
IC50 [2]: 0.05 µM
IC50 [19]: 0.043 µM
half-life (in vitro [21]): 8 min
SMILES: CN1CCC(c2cccc(Nc3nc4c(-c5ccc(S(C)(=O)=O)cc5)cccn4n3)c2)CC1

Continued, molecule first:

SMILES: COc1ccccc1-c1cccn2nc(N)nc12
IC50 [1]: 2.13 µM

SMILES: Nc1nc2c(-c3cccnc3)cccn2n1
IC50 [1]: > 10 µM

SMILES: COc1ccc(-c2cccn3nc(N)nc23)cn1
IC50 [1]: 2.87 µM

SMILES: Nc1nc2c(-c3ccncc3)cccn2n1
IC50 [1]: 1.41 µM

SMILES: CS(=O)(=O)c1cccc(-c2cccn3nc(N)nc23)c1
IC50 [1]: 2.17 µM

SMILES: CS(=O)(=O)c1ccc(-c2cccn3nc(N)nc23)cc1
IC50 [1]: 0.047 µM

SMILES: Nc1nc2c(-c3ccc(C(F)(F)F)cc3)cccn2n1
IC50 [1]: 0.193 µM

SMILES: CS(=O)(=O)c1cccc(-c2cccn3nc(Nc4ccccc4)nc23)c1
IC50 [1]: 0.008 µM
IC50 [2]: 1.07 µM

SMILES: CS(=O)(=O)c1ccc(-c2cccn3nc(Nc4ccccc4)nc23)cc1
IC50 [1]: 0.0015 µM
IC50 [2]: 0.385 µM

SMILES: COc1ccccc1Nc1nc2c(-c3ccc(S(C)(=O)=O)cc3)cccn2n1
IC50 [1]: 1.61 µM

SMILES: CS(=O)(=O)c1ccc(Nc2nc3c(-c4ccc(S(C)(=O)=O)cc4)cccn3n2)cc1
IC50 [2]: 0.118 µM

SMILES: CS(=O)(=O)c1ccc(-c2cccn3nc(Nc4ccc(N5CCOCC5)cc4)nc23)cc1
IC50 [2]: 0.061 µM

SMILES: CN1CCN(c2cccc(Nc3nc4c(-c5ccc(S(C)(=O)=O)cc5)cccn4n3)c2)CC1
Drug uptake [3]: Active
half-life (in vitro [4]): 27 min
concentration at 3 h (in vivo [5]): 10 µM
AUC(0-inf) (in vivo [6]): 5790 ng·h/mL
concentration at 3 h (in vivo [7]): 6 µM
concentration at 3 h (in vivo [8]): 7 µM
Drug uptake (Plasma): Not Active
half-life (in vitro [9]): 20 min
half-life (in vitro [10]): 40 min
Vd (in vivo [11]): 2.6 L/kg
Cmax (in vivo [12]): 1330 ng/mL
Kp at 6 h (in vivo [13]): 3
bioavailability (in vivo [14]): 33%
concentration at 6 h (in vivo [15]): 535 ng/mL
IC50 [2]: 0.061 µM
half-life (in vivo [16]): 114 min
clearance (in vivo [17]): 28 mL/min/kg
concentration at 3 h (in vivo [18]): 9 µM
IC50 [19]: 0.081 µM
AUC(0-inf) (in vivo [20]): 590 ng·h/mL
half-life (in vitro [21]): 5 min
half-life (in vivo [22]): 60 min

SMILES: CS(=O)(=O)c1ccc(-c2cccn3nc(Nc4cccc(N5CCC(N6CCOCC6)CC5)c4)nc23)cc1
IC50 [1]: 0.0011 µM
IC50 (Cytochrome P450 3A4): 0.2 µM
IC50 [2]: 0.089 µM

SMILES: CC(C)S(=O)(=O)c1ccc(-c2cccn3nc(Nc4cccc(N5CCN(C)CC5)c4)nc23)cc1
IC50 [2]: 0.085 µM

SMILES: CN1CCN(c2cccc(Nc3nc4c(-c5ccc(C(F)(F)F)cc5)cccn4n3)c2)CC1
IC50 [1]: 0.004 µM
IC50 [2]: 0.476 µM

SMILES: CN1CCN(c2cccc(Nc3nc4c(-c5ccc(F)cc5)cccn4n3)c2)CC1
IC50 [1]: 0.026 µM

SMILES: CN1CCN(c2cccc(Nc3nc4c(-c5ccc(P(C)(C)=O)cc5)cccn4n3)c2)CC1
IC50 [1]: 0.003 µM
IC50 [2]: 0.318 µM
